The source made the active and inactive calls. The calls are words filed in the database; no cut-off is given here.
How the values were obtained:
[1] = system: Mus musculus; experiment: Anticonvulsant activity in Kunming mouse assessed as protection against maximal electroshock-induced seizures measured as abolition of hind limb tonic extension spasm at 100 mg/kg, ip after 0.5 hrs; assay type: functional, organism-based; design: dose 100 mg/kg; settings: Hindlimb
[2] = system: Mus musculus; experiment: Neurotoxicity in Kunming mouse assessed as motor impairment at 300 mg/kg, ip after 4 hrs by standardized rotarod test; assay type: toxicity, organism-based; design: dose 300 mg/kg, route intraperitoneal; settings: in vivo
[3] = system: Mus musculus; experiment: Neurotoxicity in Kunming mouse assessed as motor impairment at 300 mg/kg, ip after 0.5 hrs by standardized rotarod test; assay type: toxicity, organism-based; design: dose 300 mg/kg, route intraperitoneal; settings: in vivo
[4] = system: Mus musculus; experiment: Anticonvulsant activity in Kunming mouse assessed as protection against subcutaneous pentylenetetrazole-induced seizures at 300 mg/kg, ip after 0.5 hrs; assay type: functional, organism-based; design: dose 300 mg/kg
[5] = system: Mus musculus; experiment: Anticonvulsant activity in Kunming mouse assessed as protection against subcutaneous pentylenetetrazole-induced seizures at 300 mg/kg, ip after 4 hrs; assay type: functional, organism-based; design: dose 300 mg/kg
[6] = system: Mus musculus; experiment: Anticonvulsant activity in Kunming mouse assessed as protection against maximal electroshock-induced seizures measured as abolition of hind limb tonic extension spasm at 300 mg/kg, ip after 4 hrs; assay type: functional, organism-based; design: dose 300 mg/kg; settings: Hindlimb
[7] = system: Mus musculus; experiment: Anticonvulsant activity in ip dosed Kunming mouse assessed as protection against maximal electroshock-induced seizures measured as abolition of hind limb tonic extension spasm after 0.5 hrs; assay type: functional; settings: Hindlimb
[8] = system: Mus musculus; experiment: Anticonvulsant activity in Kunming mouse assessed as protection against maximal electroshock-induced seizures measured as abolition of hind limb tonic extension spasm at 30 mg/kg, ip after 0.5 hrs; assay type: functional, organism-based; design: dose 30 mg/kg; settings: Hindlimb
[9] = system: Mus musculus; experiment: Protective index, ratio of TD50 for neurotoxicity in ip dosed Kunming mouse to ED50 for protection against maximal electroshock-induced seizure in ip dosed Kunming mouse; assay type: functional
[10] = system: Mus musculus; experiment: Anticonvulsant activity in Kunming mouse assessed as protection against maximal electroshock-induced seizures measured as abolition of hind limb tonic extension spasm at 100 mg/kg, ip after 4 hrs; assay type: functional, organism-based; design: dose 100 mg/kg; settings: Hindlimb
[11] = Neurotoxicity in ip dosed Kunming mouse assessed as motor impairment after 4 hrs by standardized rotarod test; assay type: toxicity, organism-based; settings: in vivo
[12] = system: Mus musculus; experiment: Anticonvulsant activity in Kunming mouse assessed as protection against maximal electroshock-induced seizures measured as abolition of hind limb tonic extension spasm at 30 mg/kg, ip after 4 hrs; assay type: functional, organism-based; design: dose 30 mg/kg; settings: Hindlimb
[13] = system: Mus musculus; experiment: Neurotoxicity in Kunming mouse assessed as motor impairment at 100 mg/kg, ip after 4 hrs by standardized rotarod test; assay type: toxicity, organism-based; design: dose 100 mg/kg, route intraperitoneal; settings: in vivo
[14] = system: Mus musculus; experiment: Neurotoxicity in Kunming mouse assessed as motor impairment at 100 mg/kg, ip after 0.5 hrs by standardized rotarod test; assay type: toxicity, organism-based; design: dose 100 mg/kg, route intraperitoneal; settings: in vivo
[15] = system: Mus musculus; experiment: Anticonvulsant activity in Kunming mouse assessed as protection against maximal electroshock-induced seizures measured as abolition of hind limb tonic extension spasm at 300 mg/kg, ip after 0.5 hrs; assay type: functional, organism-based; design: dose 300 mg/kg; settings: Hindlimb
[16] = system: Mus musculus; experiment: Anticonvulsant activity in Kunming mouse assessed as protection against subcutaneous pentylenetetrazole-induced seizures at 100 mg/kg, ip after 0.5 hrs; assay type: functional, organism-based; design: dose 100 mg/kg

## CC(C)c1cc(C(C)C)c(S(=O)(=O)NCCN2C(=O)NC3(CC3(C)C)C2=O)c(C(C)C)c1 (racemic)
[1]
  Activity: Active
[2]
  Activity: Non-toxic
[3]
  Activity: Non-toxic
[4]
  Activity: inactive
[5]
  Activity: inactive
[6]
  Activity: Active

## Cc1ccc(S(=O)(=O)NCCN2C(=O)NC3(CC3(C)C)C2=O)cc1 (racemic)
[7]
  ED50: 40.6 mg/kg
[8]
  Activity: Active
[9]
  Ratio TD50/ED50: 12
[2]
  Activity: Non-toxic
[3]
  Activity: Toxic
[10]
  Activity: Active
[4]
  Activity: Active
[5]
  Activity: inactive
[11]
  TD50 at 4 h: 488 mg/kg

## O=C1NC(=O)C(c2ccccc2)(c2ccccc2)N1 [PHENYTOIN]
[7]
  ED50: 9.2 mg/kg
[12]
  Activity: Active
[13]
  Activity: Toxic
[8]
  Activity: Active
[4]
  Activity: inactive
[5]
  Activity: inactive
[14]
  Activity: Toxic

## CN(C)S(=O)(=O)NCCN1C(=O)NC2(CC2(C)C)C1=O (racemic)
[15]
  Activity: inactive
[2]
  Activity: Non-toxic
[3]
  Activity: Non-toxic
[4]
  Activity: inactive
[5]
  Activity: inactive
[6]
  Activity: Active

## CC1(C)CC12NC(=O)N(CCNS(=O)(=O)c1ccc(F)cc1)C2=O (racemic)
[7]
  ED50: 28.1 mg/kg
[12]
  Activity: Active
[8]
  Activity: Active
[9]
  Ratio TD50/ED50: 20
[2]
  Activity: Non-toxic
[3]
  Activity: Non-toxic
[4]
  Activity: Active
[5]
  Activity: inactive
[11]
  TD50 at 4 h: 561 mg/kg

## CCOC(=O)C1(NC(=O)NCCNS(C)(=O)=O)CC1(C)C (racemic)
[15]
  Activity: inactive
[2]
  Activity: Non-toxic
[3]
  Activity: Non-toxic
[4]
  Activity: inactive
[5]
  Activity: inactive
[6]
  Activity: inactive

## CC1(C)CC12NC(=O)N(CCNS(=O)(=O)c1ccc([N+](=O)[O-])cc1)C2=O (racemic)
[15]
  Activity: Active
[2]
  Activity: Non-toxic
[3]
  Activity: Non-toxic
[4]
  Activity: inactive
[5]
  Activity: inactive
[6]
  Activity: inactive

## CCOC(=O)C1(NC(=O)NCCNS(=O)(=O)c2ccc(C)cc2)CC1(C)C (racemic)
[1]
  Activity: Active
[2]
  Activity: Non-toxic
[3]
  Activity: Non-toxic
[4]
  Activity: inactive
[5]
  Activity: inactive
[6]
  Activity: Active

## CCOC(=O)C1(NC(=O)NCCNS(=O)(=O)c2c(C(C)C)cc(C(C)C)cc2C(C)C)CC1(C)C (racemic)
[15]
  Activity: Active
[2]
  Activity: Non-toxic
[3]
  Activity: Non-toxic
[4]
  Activity: inactive
[5]
  Activity: inactive
[6]
  Activity: inactive

## CC1(C)CC12NC(=O)N(CCNS(=O)(=O)c1cccs1)C2=O (racemic)
[1]
  Activity: Active
[2]
  Activity: Toxic
[4]
  Activity: inactive
[5]
  Activity: inactive
[6]
  Activity: Active
[14]
  Activity: Toxic

## CCOC(=O)C1(NC(=O)NCCNS(=O)(=O)c2cccs2)CC1(C)C (racemic)
[15]
  Activity: Active
[2]
  Activity: Non-toxic
[3]
  Activity: Toxic
[4]
  Activity: inactive
[5]
  Activity: inactive
[6]
  Activity: inactive

## CCCCS(=O)(=O)NCCN1C(=O)NC2(CC2(C)C)C1=O (racemic)
[1]
  Activity: Active
[2]
  Activity: Non-toxic
[3]
  Activity: Non-toxic
[10]
  Activity: Active
[4]
  Activity: inactive
[5]
  Activity: inactive

## CC1(C)CC12NC(=O)N(CCNS(C)(=O)=O)C2=O (racemic)
[15]
  Activity: inactive
[2]
  Activity: Non-toxic
[3]
  Activity: Non-toxic
[4]
  Activity: inactive
[5]
  Activity: inactive
[6]
  Activity: inactive

## CCCCS(=O)(=O)NCCNC(=O)NC1(C(=O)OCC)CC1(C)C (racemic)
[1]
  Activity: Active
[2]
  Activity: Non-toxic
[3]
  Activity: Non-toxic
[4]
  Activity: inactive
[5]
  Activity: inactive
[6]
  Activity: inactive

## CCOC(=O)C1(NC(=O)NCCNS(=O)(=O)c2ccc(F)cc2)CC1(C)C (racemic)
[1]
  Activity: Active
[2]
  Activity: Non-toxic
[3]
  Activity: Non-toxic
[10]
  Activity: Active
[4]
  Activity: inactive
[5]
  Activity: inactive

## CCOC(=O)C1(NC(=O)NCCNS(=O)(=O)N(C)C)CC1(C)C (racemic)
[15]
  Activity: inactive
[2]
  Activity: Non-toxic
[3]
  Activity: Non-toxic
[4]
  Activity: inactive
[5]
  Activity: inactive
[6]
  Activity: inactive

## CCOC(=O)C1(NC(=O)NCCNS(=O)(=O)c2cccc([N+](=O)[O-])c2)CC1(C)C (racemic)
[15]
  Activity: inactive
[2]
  Activity: Non-toxic
[3]
  Activity: Non-toxic
[4]
  Activity: inactive
[5]
  Activity: inactive
[6]
  Activity: inactive

## CC1(C)CC12NC(=O)N(CCNS(=O)(=O)c1cccc([N+](=O)[O-])c1)C2=O (racemic)
[1]
  Activity: Active
[2]
  Activity: Non-toxic
[3]
  Activity: Toxic
[4]
  Activity: inactive
[5]
  Activity: inactive
[6]
  Activity: inactive

## CCC1(C)CC(=O)NC1=O (configuration not stated) [ETHOSUXIMIDE]
[15]
  Activity: inactive
[2]
  Activity: Non-toxic
[3]
  Activity: Non-toxic
[5]
  Activity: Active
[6]
  Activity: inactive
[16]
  Activity: Active

## CCOC(=O)C1(NC(=O)NCCNS(=O)(=O)c2ccc([N+](=O)[O-])cc2)CC1(C)C (racemic)
[15]
  Activity: inactive
[2]
  Activity: Non-toxic
[3]
  Activity: Non-toxic
[4]
  Activity: inactive
[5]
  Activity: inactive
[6]
  Activity: inactive

Reference: ChEMBL document CHEMBL3407485, “Design, synthesis and pharmacological evaluation of novel N-(2-(1, 1-dimethyl-5, 7-dioxo-4, 6-diazaspiro[2.4]heptan-6-yl)ethyl) sulfonamide derivatives as potential anticonvulsant agents” (Eur J Med Chem, 2015)
